The values that follow come from patent US8022075B2, “Diagnostic and remedy for disease caused by amyloid aggregation and/or deposition” (Fujifilm Ri Pharma Co., Ltd., priority 2005, dated 2011).

The target in data set [1] is T1, Amyloid β (1-40) peptide (Homo sapiens, UniProt P05067).
T1 construct: amyloid β (1-40) peptide hydrochloric acid salt; host or cells: chemically synthesised peptide
The experiment in a line: Inhibitory activity on formation of amyloid from amyloid β protein (thioflavin T method). It is filed as biochemical. The conditions noted are these: amyloid β (1-40) 15 μmol/L, PBS(−), room temperature, one day; read-out: Aggregation inhibitory activity IC50 A β 1-40. On the procedure: Amyloid β (1-40) peptide hydrochloric acid salt (product of PEPTIDE […], INC.) (15 μmol/L) and a test substance (1.6, 8, or 40 μmol/L) were incubated in PBS(−) at room temperature for one day. Thereafter, the amount of formed amyloid was measured through the thioflavin T method. […] As is clear from table 3, aggregation of amyloid β (1-40) can be prevented by the compound of the present invention.

In data set [2] the target is T2, synthetic amyloid β (1-40) aggregates (Homo sapiens, UniProt P05067). Briefly: Inhibition of binding of compound 23 to amyloid β protein aggregates. Also on record: amyloid β (1-40) peptide hydrochloric acid salt; host or cells: chemically synthesised peptide. The conditions noted are these: binding of 125I-labeled compound 23 to A β 1-40 aggregates, room temperature, three hours. On the procedure:
Synthetic A β peptides in a solution form undergo spontaneous aggregation in a test tube, to thereby form aggregates having the same β-sheet structure as that of amyloid aggregates present in a brain suffering from Alzheimer's disease (hereinafter, such a brain is referred to as an “Alzheimer brain”).
After ultrasonication, the mixture was gently stirred at 37° C. for four days, to thereby produce synthetic amyloid β (1-40) aggregates.
Binding test was performed in the following manner. Firstly, PBS (500 μL) and 0.2% BSA/PBS solution (100 μL) were added to test tubes. […] Reaction was initiated by adding a synthetic amyloid β (1-40) aggregates solution (concentration: 500 nmol/L, adjusted by PBS) (200 μL) to each test tube.
These samples were incubated at room temperature for three hours, and each reaction mixture was filtered by means of a cell harvester (M-24R, product of Brandel) by use of a Whatman GF/B filter (product of Whatman). The filter was washed thrice with ice-cooled PBS solution (about 2 mL) containing 0.1-mmol/L ascorbic acid.
Activity values were calculated by means of a GraphPad Prism Ver.

For data set [3], the target named is T2, synthetic amyloid β (1-40) aggregates. Particulars: for Bonding amount against amyloid β protein aggregate concentration: presence and absence of normal rat brain homogenate.
Description: A brain tissue was removed from a normal rat, and a 5-fold amount of PBS was added to the tissue (wet state). A homogenate was produced from the mixture by use of a homogenizer. To test tubes, PBS (500 μL, in the presence of homogenate or 600 μL, in the absence of homogenate) was added. A rat brain homogenate (100 μL) was added under the presence condition of homogenate. […] Each (200 μL) of the Aβ aggregates solutions of twice-diluted series was added to each test tube, whereby reaction was initiated.
By subtracting a non-specific binding amount from the total binding amount and dividing the difference by the non-specific binding amount, an SN (Signal/Noise) ratio was calculated. The relationship between the SN ratio and amyloid β protein aggregate concentration was investigated (FIG. 2).
The conditions of data set [4]: standard substances of liposolubility; values reported in the literature; cited from earlier work.
The conditions of data set [5]: human, in vivo; cited from earlier work.
The conditions of data set [6]: animal PET scanner; cited from earlier work.
The target of data set [7] is T1, Amyloid β (1-40) peptide. The experiment in a line: Binding of compound 24 to amyloid β (1-40) aggregated in PBS or dissolved in purified water. Particulars: for Specific binding radioactivity: amyloid β 50 nmol/L. On the procedure: Separately, amyloid β (1-40) peptide HCl salt was dissolved in purified water, to thereby prepare a 100-μmol/L amyloid β (1-40) solution. A CD spectrum of each sample solution (twice diluted) was measured at room temperature (about 25° C.) in a wavelength range of 190 to 250 nm. PBS or purified water was measured as a blank. After measurement, a blank value was subtracted from a CD value of each sample, to thereby correct the base line. From the thus-corrected CD values, secondary structure analysis was performed by means of SELCON3.
Subsequently, binding ability of the compound of the invention to amyloid β (1-40) peptide dissolved in purified water or aggregated in PBS was determined in a manner similar to that employed in Test Example 3. However, a ^125I-labeled compound 24 was employed, and no rat bran homogenate was included. The employed amyloid β concentration was 50 nmol/L at reaction.

Data set [8] has as its target Whole protein of human Alzheimer lesion origin (temporal cortex) (Homo sapiens, UniProt P05067). Briefly: Calculation of binding affinity by use of Alzheimer brain. Particulars: Alzheimer brain homogenate. On the procedure: Whole protein of human Alzheimer lesion origin (temporal cortex), a commercial product of Biochain (US), was employed.
An Alzheimer brain homogenate diluted with PBS was added to each test tube, to thereby initiate reaction.
4.00 (GraphPad Software, Inc.), to thereby calculate binding parameters (Kd, Bmax).

Data set [9] in a line: Distribution in rat body (radioactivity in the brain). Particulars: caudal vein. It is filed as in vivo, Wistar male rats. The protocol:
Wistar male rats (purchased from Japan SLC, Inc.) were conditioned for seven days, maintaining water and chow (commercial solid chow: F-2, product of Funabashi Farm) ad libitum, and the non-fasting rats were employed in the experiment (8-week-old at experiment).
Each of compound 23, compound 24, and [^125I]-IMPY was dissolved in a solution containing 40 mM ascorbic acid and 0.1% Tween80, to thereby adjust the concentration to 100 μCi/200 μL. Each sample was administered to each rat through the caudal vein under non-anesthetization. […] The brain was cut into the left and right parts, and each part was weighed. The right brain was placed in a vial, and radioactivity was measured by means of a gamma counter. The radioactivity relative to the administration amount was calculated. Specifically, radioactivity of the tissue and that divided by the tissue weight were calculated as % I.D. and % I.D./g-tissue weight, respectively.

Data set [10] is described as follows: In vitro metabolism rate by use of liver microsomes, mouse. It is filed as in vitro ADME, Male CD1 mouse. On the procedure: (§1) Liver microsomes (Pooled human Liver Microsomes, Male CD1 mouse, Male Wistar Rat), which is a commercial product of In Vitro Technologies, were employed.
(§2) Each of compound 23, compound 24, and [^125I]-IMPY was dissolved in Milli Q water, to thereby adjust the concentration to 11 μCi/mL (5 nmol/L).
(§3) To a mixture of 100 mM glucose 6-phosphate and […] NADPH solution, an equal volume of […] magnesium chloride was added. Glucose 6-phosphate dehydrogenase was employed at a final concentration of 10 unit/mL. These components were reconstituted upon use.
(§4) Method: To each of the glass test tubes, […] EDTA/0.33M potassium phosphate buffer (150 μL), Milli Q water (200 μL), 0.005 or 0.5 mg protein/mL microsome suspension (50 μL), and a test substance solution (50 μL) were added. The mixture was preliminarily incubated at 37° C. for two minutes. The above-prepared NADPH-generating system (50 μL) was added, to thereby initiate reaction. At an arbitrary point of time, an equal volume of acetonitrile was added, to thereby terminate the reaction. The reaction mixture (50 μL) was sampled into a glass tube for determining the metabolism amount, and saturated ascorbic acid ethanol solution (25 μL) was added thereto. The sample was developed by means of a reverse phase TLC (Whatman KC18F) with 80% methanol. The TLC was brought into contact with an imaging plate, and radioactivity was detected by means of BAS-1800 (product of Fuji Film Co., Ltd.). The metabolism rate was calculated through analysis by means of GraphPad Prism Ver. 4.00 (GraphPad Software, Inc.).
(Liver microsomes are a subcellular fraction often used to study metabolism.)

Data set [11] in a line: In vitro metabolism rate by use of liver microsomes, rat. It is filed as in vitro ADME, Male Wistar Rat. On the procedure: as §1, §2, §3, §4
A short description of data set [12]: In vitro metabolism rate by use of liver microsomes, human. It counts as in vitro ADME. The protocol: as §1, §2, §3, §4
[13] abbreviates: read-out: Inhibitory activity (n = 3) IC50 Mean ± S.D.

Like-named read-outs stand apart in the source and are kept apart here. Where only a bound is given, the exact number is not on record here.

T2 sequence (P05067 672-711 limits assumed): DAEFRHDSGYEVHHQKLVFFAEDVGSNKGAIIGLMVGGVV
T1 sequence (P05067 672-711 limits assumed): as above
Sequence of Whole protein of human Alzheimer lesion origin (temporal cortex) (P05067 672-713): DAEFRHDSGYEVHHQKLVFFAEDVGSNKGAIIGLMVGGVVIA

Consider “5-[4-(6-Iodoimidazo[1,2-a]pyridin-2-yl)phenyl]-1,3-oxazole [Example 1]”, for which the IC50 at Amyloid β (1-40) peptide [1] turned out to be 29400 nM; in [2] (setting [13]) it was 1.23 ± 0.0842 nM.
As to `CN(C)c1ccc(-c2cn3cc([123I])ccc3n2)cc1` [^123I-IMPY, [^123I]6-iodo-2-(4′-dimethylamino-)phenyl-imidazo[1,2-a]pyridine, reference compound], the “Bonding amount against amyloid β protein aggregate concentration” value in [3] is “increase in bonding amount in response to the amyloid β protein aggregate concentration”.
Turning to `CC(=C(C#N)C#N)c1ccc2cc(N(C)CCF)ccc2c1` [FDDNP, reference compound], the IC50 in data set [2] (setting [13]) turned out to be 1050 ± 48.8 nM.
Regarding `CC(=O)Nc1ccc(O)cc1` [Acetaminophen], the LogD7.4 in data set [4] is 0.51.
On to `[11CH3]Nc1ccc(-c2nc3ccc(O)cc3s2)cc1` [^11C-PIB], for which the “Difference in retention between AD patient groups” value in data set [5] is listed as “at most about two-fold”. Moreover, in data set [6], the “Retention time, PS1/APP mice against normal mice” value is “no difference is observed in retention time”.
As to `Clc1cccc(Cl)c1N=C1NCCN1` [Clonidine], the LogD7.4 in [4] is reported as 0.62.
Regarding `C[C@]12CC[C@H]3[C@@H](CCC4=CC(=O)CC[C@@]43C)[C@@H]1CC[C@@H]2O` [Teststeron], the LogD7.4 in data set [4] is listed as 3.29.
For the compound `Oc1ncnc2[nH]ncc12` [Allopurinol], the LogD7.4 in data set [4] was −0.44.
Regarding `CN/C(=N/CCSCc1nc[nH]c1C)NC#N` [Cimetidine], the LogD7.4 in data set [4] is 0.35.
As for `c1ccc(-c2ccc(C(c3ccccc3)n3ccnc3)cc2)cc1` (stereo not shown) [Bifonazole], in [4], the LogD7.4 is on record as 4.77.
`[123I]c1ccc2nc(-c3ccc(-c4cc[nH]n4)cc3)cn2c1` [^123I-labeled product of compound 3, [^123I]6-Iodo-2-[4-(1H-3-pyrazolyl)phenyl]imidazo[1,2-a]pyridine]: in [3] (compared with 123I-IMPY, presence and absence of normal rat brain homogenate (FIG. 2)), the “SN (Signal/Noise) ratio” value is on record as “higher SN ratio”. For the same compound, the “Bonding amount against amyloid β protein aggregate concentration” value in [3] is recorded as “increase in bonding amount in response to the amyloid β protein aggregate concentration”.
In the case of `Ic1ccc2nc(-c3ccc(-c4cc[nH]n4)cc3)cn2c1` [Example 3, 6-Iodo-2-[4-(1H-3-pyrazolyl)phenyl]imidazo[1,2-a]pyridine], the IC50 on Amyloid β (1-40) peptide [1] was 22300 nM; in data set [2], 9.72 ± 1.44 nM.
Regarding “[^125I]6-Iodo-2-[4-(1H-3-pyrazolyl)phenyl]imidazo[1,2-a]pyridine [Example 24]”, the Specific binding radioactivity at Amyloid β (1-40) peptide [7] (Solution of amyloid β (1-40) dissolved in purified water) is given as 6300.3 cpm; at Amyloid β (1-40) peptide [7] (Suspension of amyloid β (1-40) aggregated in PBS) it was 125504.4 cpm. For the same compound, at Amyloid β (1-40) peptide [7] (ratio suspension in PBS / solution in purified water), the “Specific binding to aggregates (suspension) relative to dissolved amyloid β (1-40) (solution)” value was “about 20 times”. Further, the Bmax in [8] is recorded as 1.59 pmol/mg protein. For the same compound, the dissociation constant Kd in [8] (125I-labeled test compound 0.5 nmol/L) was 4.05 nM. Also, the “Radioactivity in the rat brain Mean ± SD” value in data set [9] (2 min after administration) turned out to be 0.760 ± 0.036 % I.D./g; in data set [9] (5 min after administration) it was 0.656 ± 0.026 % I.D./g; in data set [9] (15 min after administration), 0.373 ± 0.047 % I.D./g; in [9] (30 min after administration), 0.176 ± 0.009 % I.D./g; in data set [9] (60 min after administration), 0.053 ± 0.003 % I.D./g; in data set [9] (120 min after administration) it was 0.015 ± 0.002 % I.D./g. The “Rate of metabolism by liver microsomes” value in data set [10] was 0.229 ± 0.061 pmol/min/mg protein; in data set [11] it was 0.193 ± 0.058 pmol/min/mg protein; in data set [12], 0.140 ± 0.057 pmol/min/mg protein.
Consider `Nc1c(/N=N/c2ccc(-c3ccc(/N=N/c4cc(S(=O)(=O)O)c5ccccc5c4N)cc3)cc2)cc(S(=O)(=O)O)c2ccccc12` [Congo Red, reference compound], for which, in data set [2], the IC50 was more than 5000 nM.

One may read the IC50 as the concentration that gives 50% inhibition. Usually Kd stands for the constant that tells how readily two partners part at equilibrium.
